Experimental data published in PubChem BioAssay (NCI).
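These data come from cells grown in 96-well plates and exposed to compound for 48 hours at five concentrations. GI50 = concentration required for 50% inhibition of growth. TGI denotes the concentration required for complete inhibition of growth.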

What was measured:
Experiment in all cases: DTP human tumour cell line panel, 48 h
MDA-MB-231 breast = tested on: MDA-MB-231 breast
MCF7 breast = tested on: MCF7 breast
LXFL 529 NSCLC = tested on: LXFL 529 NSCLC
RXF-631 renal = tested on: RXF-631 renal
DMS 114 small cell lung = tested on: DMS 114 small cell lung
DLD-1 colon = tested on: DLD-1 colon
HOP-18 NSCLC = tested on: HOP-18 NSCLC
XF 498 CNS = tested on: XF 498 CNS
MDA-N = tested on: MDA-N

| Compound | GI50 (MDA-MB-231 breast) [µM] | TGI (MDA-MB-231 breast) [µM] | GI50 (MCF7 breast) [µM] | TGI (MCF7 breast) [µM] | TGI (LXFL 529 NSCLC) [µM] | TGI (RXF-631 renal) [µM] | TGI (DMS 114 small cell lung) [µM] | TGI (DLD-1 colon) [µM] | TGI (HOP-18 NSCLC) [µM] | TGI (XF 498 CNS) [µM] | TGI (MDA-N) [µM] |
| --- | --- | --- | --- | --- | --- | --- | --- | --- | --- | --- | --- |
| COc1nc2c(cc1S(=O)(=O)c1ccccc1)CCc1c-2cnn1-c1ccccc1Cl | 5.16 | > 100 | 4.13 | > 100 |  |  |  |  |  |  |  |
| NS(=O)(=O)c1ccc(-n2nc(-c3ccc(Br)cc3)ccc2=O)cc1 | > 10 | > 10 | > 10 | > 10 |  |  |  |  |  |  |  |
| COc1ccc(/C=C(/C(=O)O)c2cc(OC)c(OC)c(OC)c2)cc1 |  |  |  |  | > 100 | > 100 | > 100 | > 100 |  |  |  |
| COc1ccc(N=Cc2cc(OC)c(OC)c(OC)c2)cc1 |  |  |  |  | > 100 |  | > 100 | > 100 | > 100 | > 100 |  |
| COc1ccc(-n2cc(-c3ccc(OC)c(OC)c3)[nH]c2=S)cc1Cl | 61.4 | > 100 | > 100 | > 100 |  |  |  |  |  |  |  |
| O=C1c2ccccc2-c2c1c1cc3c(cc1c(=O)n2CCCCl)OCO3 | 24.7 | 75.3 | 17.7 | > 100 |  |  |  |  |  |  |  |
| COc1ccccc1NC(=O)c1ccc(/C=C/C(=O)c2nccn2C)cc1 | 0.835 | 9.25 | 0.404 | 0.977 |  |  |  |  |  |  |  |
| Cn1cc(C2=C(c3ccc(OC[C@@H](O)CO)cc3)C(=O)NC2=O)c2ccccc21 | > 25 | > 25 | > 25 | > 25 |  |  |  |  |  |  |  |
| C[Si](C)(C)c1ccc(CC2(Cc3ccc([Si](C)(C)C)cc3)CCNC2)cc1 |  |  |  |  | 4.79 | 5.36 | 3.87 | 6.87 | 9.12 |  |  |
| COC(=O)c1c(OC)cccc1C(=O)O |  |  |  |  | > 100 | > 100 | > 100 |  | > 100 |  |  |
| CCN1CCN(c2nc(NCCNc3ccnc4cc(Cl)ccc34)c3ccccc3n2)CC1 | 1.28 | 2.88 | 1.11 | 11 |  |  |  |  |  |  |  |
| O=C1NC(=O)C2C(=O)NC(=O)C1C2(c1ccccc1)c1ccc(Cl)cc1 (centres undefined) |  |  |  |  | > 100 |  |  | > 100 |  | > 100 |  |
| O=[N+]([O-])c1ccc(NSc2ccccc2)cc1 |  |  |  |  | 70.9 |  | > 100 | 64 | > 100 | 95.3 |  |
| CN(C)CCNc1nc2ccccc2c2[nH]c3ccccc3c12 | 1.22 | 3.99 | 0.129 | 0.941 |  |  |  |  |  |  |  |
| O=c1[nH]c(=O)n(C2CC(O)C(CO)O2)cc1C#Cc1c(F)c(F)c(F)c(F)c1F (centres undefined) |  |  |  |  | > 100 |  | > 100 | > 100 |  |  |  |
| CN1CCCNCCN(CCc2ccccn2)CCCN(C)CC1 |  |  |  |  | > 100 | > 100 | > 58.2 | > 100 | > 100 | > 100 |  |
| O=C(O)/C=C/C(=O)Nc1ncn[nH]1 |  | > 100 |  | > 100 |  |  |  |  |  |  | > 100 |
| ClCc1ccccc1CSc1ncnc2nc[nH]c12 | > 60 | > 60 | 53 | > 60 |  |  |  |  |  |  |  |
| COC(=O)c1c2c(c(C)[n+]([O-])c1C)C(=O)C=CC2=O | 2.68 | 8.28 |  |  |  |  |  |  |  |  |  |

| Compound | GI50 (MDA-MB-231 breast) [µM] | TGI (MDA-MB-231 breast) [µM] | GI50 (MCF7 breast) [µM] | TGI (MCF7 breast) [µM] | TGI (LXFL 529 NSCLC) [µM] | TGI (RXF-631 renal) [µM] | TGI (DMS 114 small cell lung) [µM] | TGI (DLD-1 colon) [µM] | TGI (HOP-18 NSCLC) [µM] | TGI (XF 498 CNS) [µM] | TGI (MDA-N) [µM] |
| --- | --- | --- | --- | --- | --- | --- | --- | --- | --- | --- | --- |
| O=C1CC[C@H]2CNC(=O)C[C@H]2C1 |  |  |  |  | > 100 | > 100 |  | > 100 |  | > 100 |  |
| CN(C)c1ccc2c(c1)oc(=O)c1ccccc12 |  | 34.4 |  | 17.1 |  |  |  |  |  |  | 26.7 |
| CC(=O)OCCc1cccnc1/C=N/O |  |  |  |  | > 100 |  | > 100 | > 100 | > 100 | > 100 |  |
| Clc1ccc(Cc2nc3cc4ccccc4cc3[nH]2)cc1 | 25.4 | 96.1 | 17.1 | > 100 |  |  |  |  |  |  |  |
| O=C1CCC(NC(=O)c2ccccc2)C(=O)N1 (centres undefined) |  | > 100 |  | > 100 |  |  |  |  |  |  | > 100 |
| COc1cccc(-c2nc(-c3cnccn3)n(Cc3ccccc3)n2)c1 |  | > 100 |  | > 100 |  |  |  |  |  |  | > 100 |
| Cn1c(-c2nonc2N)nc2cnccc21 | > 25 | > 25 | > 25 | > 25 |  |  |  |  |  |  |  |
| OC(c1cccc(C(F)(F)F)c1)c1cnccc1NC1CCCCCC1 (centres undefined) | 1.64 | 3.22 | 1.66 | 3.51 |  |  |  |  |  |  |  |
| CCCCn1/c(=N/C(=S)N(C)C)ss/c1=N\C(=S)N(C)C |  |  |  |  | > 100 |  |  | > 100 | > 100 | > 100 |  |
| CCOC(=O)CCCO |  |  |  |  | > 100 | > 100 |  | > 100 | > 100 | > 100 |  |
| CN(C)CCNC(=O)c1cccc2nc3c(Cl)cccc3nc12 |  |  |  |  | > 49.5 | > 100 | 12.1 | 42.2 | > 88 | 11.7 |  |
| CC1=C[C@@H]2Cc3occc3C(C)(C)[C@@H]2CC1 |  |  |  |  | > 100 | 38.5 | 35.9 | 32.8 | 54 | 29.3 |  |
| Cc1cc(C)nc(NS(=O)(=O)c2ccc(NC(=O)c3cccc4c(=O)c5ccccc5[nH]c34)cc2)n1 |  |  |  |  | > 100 | > 100 | 35.2 | 45.6 | 47.2 | 40.6 |  |
| O=C(Cc1ccc(/C=C/C(=O)c2ncc[nH]2)cc1)Nc1ccc(Cl)cc1 | 4.27 | 14.9 | 0.741 | 4.73 |  |  |  |  |  |  |  |
| Fc1ccc(-c2nn(-c3ccccc3)cc2-c2nc3ccccc3o2)cc1 | 8.47 | 67.3 | 0.539 | > 100 |  |  |  |  |  |  |  |
| CN=C1NC(=O)/C(=C/c2ccc3ncccc3c2)S1 | 18.5 | > 25 | 6.21 | > 25 |  |  |  |  |  |  |  |
| CCOC(=O)c1cc(-c2ccc([N+](=O)[O-])cc2)n(-c2ccc(C(=O)O)c(O)c2)c1C | 10.3 | 29.9 | 3.58 | 13.7 |  |  |  |  |  |  |  |
| O=C1Oc2cc3c(c4cccc1c24)OCN(c1ccc(Cl)cc1)C3 |  |  |  |  | 25 |  | > 57.2 | > 54.2 | 91.5 | 45.6 |  |
